Data reported in patent US4965259A, “Dioxazocine derivatives compositions and methods containing them having antidepressive, spasmolytic, anticonvulsive, and antiarrhythmic properties” (EGIS Gyogyszergyar, priority 1987, dated 1990).
Several values for one entry are separate records, joined by “and”; a condition that tells them apart may be missing. Equal entries are not always repeated. Structures can show the parent of a compound that is named as a salt. Where two headings read alike, the source gives them in different places.

Experiments:
[1] = test system: tremor induced by tremorine; experiment: Inhibition of tremor induced by tremorine on mice; type: in vivo; conditions: for ED50: Mus musculus, po, 1 h before tremorine 20 mg/kg i.p., evaluated 45 minutes after tremorine; for Therapeutical index LD50/ED50: tremorine tremor, p.o.
Method: The tests were carried out according to Everett [Science, 124, 79 (1956)]. Tremor was induced by tremorine [1,1'-(2-butynylene)-dipyrrolidine] administered intraperitoneally at a dosage of 20 mg/kg. The compounds to be examined were given perorally to the animals one hour prior to the administration of tremorine, and the tremor developed was evaluated 45 minutes after the administration of tremorine.

mice = experiment: Motility inhibiting activity (Dews equipment); type: in vivo; conditions: for ED50: Mus musculus, po, 0.5 h, interruptions of infrared beam within 30 minutes; for Therapeutical index LD50/ED50: motility inhibition, p.o.
Method: The tests were performed according to the method of Borsy et al. [Arch. Int. Pharmacolyn., 124, 1-2 (1960)]. […] Then the test animals were placed in a Dews equipment. In this equipment the number of interruptions of infrared beam within 30 minutes was counted. The percentual deviation from the number of interruptions in the case of the control group was determined in each group, then the ED50 -values and therapeutical indexes were calculated.

[2] = test system: tonic-extensoric spasms on the hind limbs (pentetrazole); experiment: Spasmolytic action on mice (pentetrazole-induced tonic-extensoric spasms); type: in vivo, white mice; conditions: for ED50: Mus musculus, po; for Therapeutical index LD50/ED50: pentetrazole spasm
Method: The tests were carried out according to the method of Banzinger and Hane which was adapted to white mice [Arch. Int. Pharmacolyn., 167, 245-249 (1959)]. The test animals were treated perorally with the compounds to be tested. One hour after the administration pentetrazole (6,7,8,9,-tetrahydro-5H-tetrazolozepine) was given intraperitoneally in a dosis of 125 mg/kg. The tonic-extensoric spasms on the hind limbs were registered.

[3] = test system: sleep induced with hexobarbital; experiment: Narcosis potentiating activity (sleep induced with hexobarbital on mice); type: in vivo; conditions: for ED50: Mus musculus, po, 1 h before hexobarbital 40 mg/kg i.v., positive = sleep exceeding control mean by factor 2,5; for Therapeutical index LD50/ED50: p.o.
Method: Groups consisting of 6 mice each were treated with the compound to be examined, perorally. After one hour, hexobarbital [5-(1-cyclohexenyl)-1,5-dimethylbarbituric acid] was injected, intravenously, at a dosage of 40 mg/kg. The control group was treated only with hexobarbital to provoke sleep. The duration of sleep was recorded. If the duration of sleep of an animal exceeded that of the mean value of the control group by a factor of 2,5, it was considered as a positive reaction. From the data referring to the animals indicating a positive reaction, the ED50 -value was calculated. From the values of LD50 and ED50, the therapeutical index was determined for each compound tested.

[4] = Acute toxicity on white mice (LD50 p.o.); parameters: species or system strain CFLP, both sexes; conditions: mouse, in vivo, po
Method: Acute toxicity of the compounds was tested on white mice of both sexes from the strain CFLP in groups consisting of 10 animals weighing 18 to 22 g. The compounds to be tested were administered perorally in a volume of 20 ml/kg. […] The animals could consume tap water and standard mouse feed ad libitum. The LD50 -values were determined according to Litchfield and Wilcoxon [J. Pharmacol. Exp. Ther., 96, 99 (1949)].

tetrabenazine ptosis = experiment: Antagonism of tetrabenazine ptosis on mice; conditions: for ED50: Mus musculus, po; for Therapeutical index LD50/ED50: tetrabenazine ptosis, mice, p.o.
Method: Groups consisting of 10 mice each were treated, perorally, with different doses of the compounds to be tested. The control group was treated only with the corresponding carrier. After 30 minutes, tetrabenazine [3-isobutyl-9,10-dimethoxy-1,2,3,4,6,7-hexahydrobenzo[a]quinolizine-2-one]was administered intraperitoneally at a dosage of 50 mg/kg. The number of animals having closed palpebral fissure was determined in each group after 30, 60, 90 and 120 minutes. Then, the mean value of ptosis was calculated in each group, and the deviation from that of the control group (i.e. the inhibition) was expressed in percentage. From the data obtained, the ED50 -value and the therapeutical index were determined for each novel compound tested as well as for amitryptiline [5-(3-dimethylaminopropylidine)-10,11-dihydro-5H-dibenzo[a,d]cycloheptene hydrochloride] and traboxopin [2-chloro-12(3-dimethylamino-2-methylpropyl)-12H-dibenzo[d,g][1,3,6]dioxazocine] employed for comparison.

[5] = test system: electroshock provoked by electric current; experiment: Anticonvulsive activity on mice (inhibition of electroshock); type: in vivo; conditions: for ED50: Mus musculus, po
Method: The tests were carried out according to the method of Swinyard et al. [I. Pharmacol. Exp. Ther., 106, 319-330 (1952)] which method is based on the inhibition of electroshock provoked by electric current on mice. The compounds to be tested were administered perorally. One hour later electroshocks were given by using corneal electrodes. The frequency of the electroshocks was 50 Hz, the current intensity 45 mA and the duration 0.4 sec. The full inhibition of the tonic-extensoric spasm on the hind limbs was considered as the criterium of the anticonvulsive activity. As reference compound phenobarbital, trimetadone and traboxopin were used.

[6] = test system: arrhythmia provoked by aconitine; experiment: Antiarrhythmic activity on rats (arrhythmia provoked by aconitine); type: in vivo; conditions: p.o., 4 mg/kg, 30 minutes prior to aconitine 75 μg/kg i.v.
Method: The antiarrhythmic activity of the novel compounds was examined by influencing the arrhythmia provoked by aconitine on rats weighing 160 to 200 g according to a modified method of Marmo et al. [Arzneim.-Forsch., 20, 12 (1970)]. The animals were anaesthetized by the administration of 1.2 g/kg of ethyl urethane, intraperitoneally. Aconitine was given at a dosage of 75 μg/kg, intravenously. The compounds to be tested were administered perorally 30 minutes prior to the treatment with aconitine. In the test, lidocaine and quinidine was employed for comparison.

[7] = mice, p.o., 1 h before pentetrazole 125 mg/kg i.p., read-out: ED50
[8] = white mice, p.o., 7 days observation, Litchfield and Wilcoxon, read-out: LD50 p.o.
[9] = mice, p.o., 1 h before electroshock (50 Hz, 45 mA, 0.4 sec), full inhibition of tonic-extensoric spasm, read-out: ED50

Row | SMILES | ED50 [1] [mg/kg] | Therapeutical index LD50/ED50 [1] | ED50 (mice) [mg/kg] | Therapeutical index LD50/ED50 (mice) | ED50 [2, 7] [mg/kg] | Therapeutical index LD50/ED50 ([2]; mice, p.o.) | Therapeutical index LD50/ED50 ([3]; narcosis potentiation) | other results
1 | CNCC(C)CN1c2ccccc2OCOc2ccc(Cl)cc21 (centres unmarked) [Example 3, 2-Chloro-12-(3-methylamino-2-methylpropyl)-12H-dibenzo[d,g][1,3,6]dioxazocine hydrochloride] | 6.4 | 78.1 | 27 | 18.50 | 19 | 26.3 | 208 | ED50 [3]: 2.4 mg/kg; Therapeutical index compared with the known reference compounds ([3]; narcosis potentiation, statement on Table II): several times higher than that of the known reference compounds; LD50 at 168 h [4, 8]: 500 mg/kg
2 | CNCCCN1c2ccccc2OCOc2ccc(Cl)cc21 [Example 4, 2-Chloro-12-(3-methylaminopropyl)-12H-dibenzo[d,g][1,3,6]dioxazocine maleate] |  |  |  |  | 25 | 28.8 |  | ED50 (tetrabenazine ptosis): 7.3 mg/kg; Therapeutical index LD50/ED50 (tetrabenazine ptosis): 98.6; ED50 [5]: 40 mg/kg; Therapeutical index LD50/ED50 ([5]; electroshock, mice, p.o.): 19; Therapeutic index compared with that of the reference compounds ([5]; electroshock, mice, statement on Table VII): 3-5 fold; Inhibition in percentage ([6]; maleate): 90.9% and 90%; LD50 at 168 h [4, 8]: 720 mg/kg
3 | CC(C)NCCCN1c2ccccc2OCOc2ccc(Cl)cc21 [Example 2, 2-Chloro-12-(3-isopropylaminopropyl)-12H-dibenzo[d,g][1,3,6]dioxazocine maleate] | 5.2 | 134.6 |  |  |  |  |  | LD50 at 168 h [4, 8]: 700 mg/kg
4 | CN(C)CCC=C1c2ccccc2CCc2ccccc21 [amitryptiline, 5-(3-dimethylaminopropylidine)-10,11-dihydro-5H-dibenzo[a,d]cycloheptene hydrochloride] |  |  |  |  |  |  |  | ED50 (tetrabenazine ptosis): 12 mg/kg; Therapeutical index LD50/ED50 (tetrabenazine ptosis): 18.7
5 | CCC1(c2ccccc2)C(=O)NC(=O)NC1=O [phenobarbital, 5-ethyl-5-phenylbarbituric acid] |  |  |  |  |  | 8.8 |  | ED50 [5]: 24.5 mg/kg; Therapeutical index LD50/ED50 ([5]; electroshock, mice, p.o.): 6.8; ED50 [2]: 19 mg/kg
6 | CCN(CC)CC(=O)Nc1c(C)cccc1C [lidocaine] |  |  |  |  |  |  |  | Inhibition in percentage [6]: 23.4%
7 | C=C[C@H]1C[N@@]2CC[C@H]1C[C@@H]2[C@@H](O)c1ccnc2ccc(OC)cc12 [quinidine] |  |  |  |  |  |  |  | Inhibition in percentage [6]: 27.3%
8 | OC(CCN1CCCCC1)(c1ccccc1)C1CCCCC1 (centres unmarked) [trihexyphenidyl] | 15 | 24.3 |  |  |  |  |  | 
9 | CC(CN(C)C)CN1c2ccccc2OCOc2ccc(Cl)cc21 (centres unmarked) [traboxopin, 2-chloro-12-(3-dimethylamino-2-methylpropyl)-12H-dibenzo[d,g][1,3,6]dioxazocine] | 25 | 10.8 | 25 | 10.8 | 32 | 8.4 | 10.8 | ED50 [5, 9]: 54 mg/kg; Therapeutical index LD50/ED50 ([5]; electroshock, mice, p.o.): 5.0; LD50 at 168 h ([4]; reference compounds, printed in Table II, read-out: LD50): 270 mg/kg
10 | CNC1=Nc2ccc(Cl)cc2C(c2ccccc2)=[N+]([O-])C1 [chlordiazepoxide, 7-chloro-2-methylamino-5-phenyl-3H-1,4-benzodiazepine-4-oxide] |  |  | 60 | 10.3 |  |  | 62.0 | ED50 [3]: 10 mg/kg
11 | CN1C(=O)OC(C)(C)C1=O [trimetadione, 3,5,5-trimethyl-oxazolidine-2,4-dione] |  |  |  |  | 400 | 5.5 |  | ED50 [5, 9]: 490 mg/kg
12 | CCCC(C)(COC(N)=O)COC(N)=O [meprobamate, 2-methyl-2-propylpropandiol-1,3-dicarbamate] |  |  | 270 | 4.1 |  |  | 4.2 | ED50 [3]: 260 mg/kg
